Test results reported in patent publication US10092537B2, “Use for PAI-1 inhibitor” (RENASCIENCE CO., LTD., priority 2013, dated 2018).

Legend:
[1] = 2-week repeated-dose toxicity test using rat (Experimental Example 6); assay type: in vivo, Sprague-Dawley rats; settings: 200, 600 and 2,000 mg/kg/day oral, repeatedly for 2 weeks; male and female rats
Method: Compound a was orally administered in 0 (0.5 w/v % carmellose sodium solution), 200, 600 and 2,000 mg/kg/day dosages to a male rat group and a female rat group each containing 5 Sprague-Dawley rats (Crl:CD(SD), 6-week old at the onset of administration) repeatedly for 2 weeks, and a toxicity test was conducted.

hematopoietic stem cells = test: Bone-marrow transplantation into wild-type mice and tPA-KO-mice (Experimental Example 8 (2)); assay type: in vivo; settings: 3 weeks after bone-marrow transplantation
Method: Compound a was administered to wild-type mice and tPA-KO-mice (6 mice for each) that underwent bone-marrow transplantation, and 3 weeks after, the mice were measured for the number of bone-marrow mononucleic cells (BM MNC), the frequency and absolute number of Lin-SLAM cells, and the frequency and absolute number of LSK-CD34 negative cells. Physiological saline was administered to a control group, and the same measurement was conducted.

[2] = system: CML cells (32Dp210-GFP cells); test: Chronic myelogenous leukemia model mice, imatinib and compound a (Experimental Example 11); assay type: in vivo, C3H/HeJ mice
Method: p210(BCR-ABL) gene was inserted into a MIGR1 vector, and GFP cDNA was further incorporated as a reporter gene downstream of the gene (hereinafter, the vector is referred to as “p210-GFP”). p210-GFP was infected with 32D cells (C3H/HeJ mice cell line), and chronic myelogenous leukemia (hereinafter, referred to as “CML”) cells were prepared. 2.5×10^5 of the thus-obtained CML cells (32Dp210(BCR-ABL)-GFP cells, hereinafter, referred to as “32Dp210-GFP cells”) were intravenously administered into the retro-orbital plexus of C3H/HeJ mice. 7 to 10 days after the transplantation, the abundance ratio of GFP cells in the peripheral blood was analyzed, and mice with more than 3% of abundance ratio were used as chronic myelogenous leukemia model mice in the following experiments.
15 chronic myelogenous leukemia model mice prepared by using the procedure described above were divided into the following 3 groups (each group: n=15), and a test drug was administered to the mice in accordance with the protocol shown in FIG. 15A.
Group 1: placebo group (physiological saline was administered via gavage)
Group 2: imatinib group (imatinib [150 mg/kg/day] was administered via gavage)
Group 3: imatinib+compound a group (imatinib [150 mg/kg/day] and compound a [100 mg/kg/day] were administered via gavage)
10 days (day 10) after the day on which CML cells were intravenously inoculated (day 0), administration of test drugs to the groups was started. The placebo group and the imatinib group were administered the respective test drugs once a day from day 10 to day 16 (7 doses in total). The imatinib+compound a group was administered imatinib once a day from day 10 to day 16 (7 doses in total), and also administered compound a once a day from day 10 to day 14 (5 doses in total).
As described above, 32Dp210-GFP includes GFP as a reporter gene, and thus, the CML cells having 32Dp210-GFP inserted (32Dp210-GFP cells) are GFP-positive. Therefore, using FACS (FACS (BD Biosciences: FACSCalibur), the frequency of CML cells (32Dp210-GFP cells) in mononucleic cells of the bone marrow and spleen was measured and compared between the imatinib group and the imatinib+compound a group.

[3] = Single-dose toxicity test using rat (Experimental Example 6); settings: 500, 1,000, and 2,000 mg/kg oral gavage
[4] = imatinib 150 mg/kg/day + compound a 100 mg/kg/day

## O=C(COCC(=O)N1CCN(C(c2ccccc2)c2ccccc2)CC1)Nc1ccc(Cl)cc1C(=O)[O-].[Na+] [Example 30 (compound group 2), 2-(2-(2-(4-benzhydrylpiperazin-1-yl)-2-oxoethoxy)acetamido)-5-chlorobenzoic acid sodium salt]
[1]
  change in general state, weight, food intake, urine test, hematological test, blood chemical test, pathological test: no obvious change
Hematopoietic stem cells; tPA-KO-mice
  bone-marrow mononucleic cells: did not exhibit an increase
  frequency or absolute number of Lin-SLAM cells and of LSK-CD34 negative cells: an increase was also not observed
Hematopoietic stem cells; wild-type mice
  bone-marrow mononucleic cells: increase
[2]; imatinib 150 mg/kg/day (day 10-16) + compound a 100 mg/kg/day (day 10-14) via gavage
  survival rate on day 50: 60%
[2]; [4]
  frequency of 32Dp210-GFP cells in bone-marrow mononucleic cells: about 1.7%
  frequency of CML cells (32Dp210-GFP cells) in the spleen: about 6.6%
[2]; imatinib 150 mg/kg/day + compound a 100 mg/kg/day via gavage, placebo 14 days
  median survival period: 40 days
[3]; after 2 weeks
  autopsy findings: no particular abnormality
[3]; male and female rats
  abnormality during 2-week monitoring: None of the male and female rats showed abnormality
[3]; male and female rats, monitored 2 weeks
  toxicity given in a single dose: low
